Reference: US20230085307A1, “PYRIDAZINONE COMPOUND AND HERBICIDE” (NISSAN CHEMICAL CORPORATION, priority 2019, published 2023)

Experiments:
rice flat sedge = experiment: Test Example 3: herbicidal effect by foliage application, Wagner pot (Table 18, symbol E); type: in vivo, rice flat sedge (Cyperus iria); conditions: 320 g/ha
Method in brief: (§1)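 Plants were sown in alluvial soil held under 0.1–0.5 cm standing water and grown 14 days in a greenhouse at 25–30 °C. An emulsifiable formulation, water-diluted to the set dose, was then sprayed onto the foliage, and effects were scored three weeks later using previously defined criteria.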

blackgrass [1] = experiment: Test Example 5: herbicidal effect by foliage application, plastic box (Table 20, symbol J); type: in vivo, blackgrass (Alopecurus myosuroides); conditions: foliage application after 14-day growth, evaluated three weeks after application; for herbicidal effect on J: blackgrass (evaluation grade 0-5): 320 g/ha
Method in brief: (§2)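 Plants were sown into sterilized diluvial soil under about 1.5 cm cover and kept in a greenhouse at 25° C. to 30° C. Fourteen days on, foliage received an even spray of the diluted emulsion. Herbicidal or crop effect was judged three weeks afterwards.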

windgrass = experiment: Test Example 5: herbicidal effect by foliage application, plastic box (Table 20, symbol L); type: in vivo, windgrass (Apera spica-venti); conditions: foliage application after 14-day growth, evaluated three weeks after application; for herbicidal effect on L: windgrass (evaluation grade 0-5): 320 g/ha
Method in brief: as §2

lambsquarters [2] = experiment: Test Example 5: herbicidal effect by foliage application, plastic box (Table 20, symbol O); type: in vivo, lambsquarters (Chenopodium album); conditions: foliage application after 14-day growth, evaluated three weeks after application; for herbicidal effect on O: lambsquarters (evaluation grade 0-5): 320 g/ha
Method in brief: as §2

persian speedwell = experiment: Test Example 5: herbicidal effect by foliage application, plastic box (Table 20, symbol R); type: in vivo, Persian speedwell (Veronica persica); conditions: foliage application after 14-day growth, evaluated three weeks after application; for herbicidal effect on R: persian speedwell (evaluation grade 0-5): 320 g/ha
Method in brief: as §2

wild oat = experiment: Test Example 5: herbicidal effect by foliage application, plastic box (Table 20, symbol I); type: in vivo, wild oat (Avena fatua); conditions: foliage application after 14-day growth, evaluated three weeks after application; for herbicidal effect on I: wild oat (evaluation grade 0-5): 320 g/ha
Method in brief: as §2

Japanese bulrush = experiment: Test Example 2: herbicidal activity, application during weed generation under submerged conditions (Table 17, symbol B); type: in vivo, Japanese bulrush (Schoenoplectus juncoides); conditions: AAH 320 g/ha; application during weed generation, submerged conditions
Method in brief: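 Wagner pot, alluvial soil, 4 cm flood; mixed sowing of all species; greenhouse 25° C.–30° C. Emulsifiable formulation, water-diluted to predetermined dose, applied to paddy water at 1–2 leaf stage. Effect rated at 3 wk using the earlier test's scoring criteria.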

chickweed = experiment: Test Example 5: herbicidal effect by foliage application, plastic box (Table 20, symbol P); type: in vivo, common chickweed (Stellaria media); conditions: foliage application after 14-day growth, evaluated three weeks after application; for herbicidal effect on P: chickweed (evaluation grade 0-5): 320 g/ha
Method in brief: as §2

Italian ryegrass [3] = experiment: Test Example 4: herbicidal effect by soil treatment (Table 19, symbol K); type: in vivo, Italian ryegrass (Lolium multiflorum); conditions: amount of applied herbicide 320 g/ha
Method in brief: (§3)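 Pre-emergence style soil spray: seeds under ~1.5 cm sterilized diluvial soil received a uniform coat of emulsion diluted to the predetermined herbicide amount. Greenhouse 25–30° C; readout at week three on previously defined criteria.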

barnyard grass [4] = experiment: Test Example 5: herbicidal effect by foliage application, plastic box (Table 20, symbol H); type: in vivo, barnyard grass (Echinochloa crus-galli); conditions: foliage application after 14-day growth, evaluated three weeks after application; for herbicidal effect on H: barnyard grass (evaluation grade 0-5): 320 g/ha
Method in brief: as §2

green foxtail = experiment: Test Example 4: herbicidal effect by soil treatment (Table 19, symbol G); type: in vivo, green foxtail (Setaria viridis); conditions: amount of applied herbicide 320 g/ha
Method in brief: as §3

velvetleaf = experiment: Test Example 5: herbicidal effect by foliage application, plastic box (Table 20, symbol M); type: in vivo, velvetleaf (Abutilon theophrasti); conditions: foliage application after 14-day growth, evaluated three weeks after application; for herbicidal effect on M: velvetleaf (evaluation grade 0-5): 320 g/ha
Method in brief: as §2

barnyard grass [5] = experiment: Test Example 4: herbicidal effect by soil treatment (Table 19, symbol H); type: in vivo, barnyard grass (Echinochloa crus-galli); conditions: amount of applied herbicide 320 g/ha
Method in brief: as §3

Chinese sprangletop = experiment: Test Example 3: herbicidal effect by foliage application, Wagner pot (Table 18, symbol D); type: in vivo, chinese sprangletop (Leptochloa chinensis); conditions: 320 g/ha
Method in brief: as §1

blackgrass [6] = experiment: Test Example 4: herbicidal effect by soil treatment (Table 19, symbol J); type: in vivo, blackgrass (Alopecurus myosuroides); conditions: amount of applied herbicide 320 g/ha
Method in brief: as §3

lambsquarters [7] = experiment: Test Example 4: herbicidal effect by soil treatment (Table 19, symbol O); type: in vivo, lambsquarters (Chenopodium album); conditions: amount of applied herbicide 320 g/ha
Method in brief: as §3

Italian ryegrass [8] = experiment: Test Example 5: herbicidal effect by foliage application, plastic box (Table 20, symbol K); type: in vivo, Italian ryegrass (Lolium multiflorum); conditions: foliage application after 14-day growth, evaluated three weeks after application; for herbicidal effect on K: Italian ryegrass (evaluation grade 0-5): 320 g/ha
Method in brief: as §2

[9] = amount of applied herbicide 320 g/ha

With `COc1ccc2c(-c3c(OC(=O)c4ccccc4OC)c(C)nn(C)c3=O)c(-c3ccccc3OC)sc2c1` [3-158] the “herbicidal effect on rice flat sedge (E)” value (rice flat sedge) was 4 (Herbicidal rate of 70% or more and less than 90%), the “herbicidal effect on J: blackgrass (evaluation grade 0-5)” value (“herbicidal effect on J: blackgrass” for short) (blackgrass [1]) was 5 (Herbicidal rate of 90% or more (almost completely withered)) and the “herbicidal effect on L: windgrass (evaluation grade 0-5)” value (“herbicidal effect on L: windgrass” for short) (windgrass) was 5 (Herbicidal rate of 90% or more (almost completely withered)). For the same molecule, the “herbicidal effect on O: lambsquarters (evaluation grade 0-5)” value (“herbicidal effect on O: lambsquarters” below) (lambsquarters [2]) was 5 (Herbicidal rate of 90% or more (almost completely withered)), the “herbicidal effect on R: persian speedwell (evaluation grade 0-5)” value (persian speedwell) was 5 (Herbicidal rate of 90% or more (almost completely withered)) and the “herbicidal effect on I: wild oat (evaluation grade 0-5)” value (shortened to “herbicidal effect on I: wild oat”) (wild oat) was 3 (Herbicidal rate of 40% or more and less than 70%). For the same molecule, the “herbicidal effect rating, B: Japanese bulrush” value (“herbicidal effect rating, B” below) (Japanese bulrush) was 3 (Herbicidal rate of 40% or more and less than 70%), the “herbicidal effect on P: chickweed (evaluation grade 0-5)” value (“herbicidal effect on P: chickweed” below) (chickweed) was 5 (Herbicidal rate of 90% or more (almost completely withered)) and the “Herbicidal effect by soil treatment, K: Italian ryegrass” value (shortened to “Herbicidal effect by soil treatment, K”) (Italian ryegrass [3]) was 0 (Herbicidal rate of 5% or less (almost no effect)). For the same molecule, the “herbicidal effect on H: barnyard grass (evaluation grade 0-5)” value (“herbicidal effect on H: barnyard grass” for short) (barnyard grass [4]) was 5 (Herbicidal rate of 90% or more (almost completely withered)), the “Herbicidal effect by soil treatment, G: green foxtail” value (“Herbicidal effect … green foxtail” for short) (green foxtail) was 0 (Herbicidal rate of 5% or less (almost no effect)) and the “herbicidal effect on M: velvetleaf (evaluation grade 0-5)” value (“herbicidal effect on M: velvetleaf” for short) (velvetleaf) was 5 (Herbicidal rate of 90% or more (almost completely withered)). The “Herbicidal effect by soil treatment, H: barnyard grass” value (barnyard grass [5]) was 0 (Herbicidal rate of 5% or less (almost no effect)), the “herbicidal effect on Chinese sprangletop (D)” value (“herbicidal effect … (D)” for short) (Chinese sprangletop) was 3 (Herbicidal rate of 40% or more and less than 70%) and the “Herbicidal effect by soil treatment, J: blackgrass” value (blackgrass [6]) was 0 (Herbicidal rate of 5% or less (almost no effect)). The “Herbicidal effect by soil treatment, O: lambsquarters” value (lambsquarters [7]) was 0 (Herbicidal rate of 5% or less (almost no effect)) and the “herbicidal effect on K: Italian ryegrass (evaluation grade 0-5)” value (“herbicidal effect on K: Italian ryegrass” below) (Italian ryegrass [8]) was 4 (Herbicidal rate of 70% or more and less than 90%).

For `CCCOc1ccc(-c2sc3c(Cl)cccc3c2-c2c(OC(=O)CCC)c(C)nn(C)c2=O)cc1` [4-028], the “herbicidal effect on rice flat sedge (E)” value (rice flat sedge) was 5 (Herbicidal rate of 90% or more (almost completely withered)), the “herbicidal effect on J: blackgrass” value (blackgrass [1]) was 0 (Herbicidal rate of 5% or less (almost no effect)) and the “herbicidal effect on L: windgrass” value (windgrass) was 0 (Herbicidal rate of 5% or less (almost no effect)). For the same molecule, the “herbicidal effect on O: lambsquarters” value (lambsquarters [2]) was 5 (Herbicidal rate of 90% or more (almost completely withered)), the “herbicidal effect on R: persian speedwell (evaluation grade 0-5)” value (persian speedwell) was 5 (Herbicidal rate of 90% or more (almost completely withered)) and the “herbicidal effect on I: wild oat” value (wild oat) was 0 (Herbicidal rate of 5% or less (almost no effect)). For the same molecule, the “herbicidal effect rating, B” value (Japanese bulrush) was 3 (Herbicidal rate of 40% or more and less than 70%), the “herbicidal effect on P: chickweed” value (chickweed) was 5 (Herbicidal rate of 90% or more (almost completely withered)) and the “Herbicidal effect by soil treatment, K” value (Italian ryegrass [3]) was 0 (Herbicidal rate of 5% or less (almost no effect)). The “herbicidal effect on H: barnyard grass” value (barnyard grass [4]) was 5 (Herbicidal rate of 90% or more (almost completely withered)), the “Herbicidal effect … green foxtail” value (green foxtail) was 0 (Herbicidal rate of 5% or less (almost no effect)) and the “herbicidal effect on M: velvetleaf” value (velvetleaf) was 5 (Herbicidal rate of 90% or more (almost completely withered)). The “Herbicidal effect by soil treatment, H: barnyard grass” value (barnyard grass [5]) was 0 (Herbicidal rate of 5% or less (almost no effect)), the “herbicidal effect … (D)” value (Chinese sprangletop) was 3 (Herbicidal rate of 40% or more and less than 70%) and the “Herbicidal effect by soil treatment, J: blackgrass” value (blackgrass [6]) was 0 (Herbicidal rate of 5% or less (almost no effect)). For the same molecule, the “Herbicidal effect by soil treatment, O: lambsquarters” value (lambsquarters [7]) was 4 (Herbicidal rate of 70% or more and less than 90%) and the “herbicidal effect on K: Italian ryegrass” value (Italian ryegrass [8]) was 2 (Herbicidal rate of 20% or more and less than 40%).

For `CCCC(=O)Oc1c(C)nn(C)c(=O)c1-c1c(-c2ccc(SC)cc2)sc2c(F)cccc12` [4-051], the “herbicidal effect on rice flat sedge (E)” value (rice flat sedge) was 3 (Herbicidal rate of 40% or more and less than 70%), the “herbicidal effect on J: blackgrass” value (blackgrass [1]) was 4 (Herbicidal rate of 70% or more and less than 90%) and the “herbicidal effect on L: windgrass” value (windgrass) was 5 (Herbicidal rate of 90% or more (almost completely withered)). The “herbicidal effect on O: lambsquarters” value (lambsquarters [2]) was 5 (Herbicidal rate of 90% or more (almost completely withered)), the “herbicidal effect on R: persian speedwell (evaluation grade 0-5)” value (persian speedwell) was 5 (Herbicidal rate of 90% or more (almost completely withered)) and the “herbicidal effect on I: wild oat” value (wild oat) was 4 (Herbicidal rate of 70% or more and less than 90%). The “herbicidal effect rating, B” value (Japanese bulrush) was 3 (Herbicidal rate of 40% or more and less than 70%), the “herbicidal effect on P: chickweed” value (chickweed) was 5 (Herbicidal rate of 90% or more (almost completely withered)) and the “Herbicidal effect by soil treatment, K” value (Italian ryegrass [3]) was 4 (Herbicidal rate of 70% or more and less than 90%). For the same molecule, the “herbicidal effect on H: barnyard grass” value (barnyard grass [4]) was 4 (Herbicidal rate of 70% or more and less than 90%), the “Herbicidal effect … green foxtail” value (green foxtail) was 1 (Herbicidal rate of 5% or more and less than 20%) and the “herbicidal effect on M: velvetleaf” value (velvetleaf) was 5 (Herbicidal rate of 90% or more (almost completely withered)). The “Herbicidal effect by soil treatment, H: barnyard grass” value (barnyard grass [5]) was 0 (Herbicidal rate of 5% or less (almost no effect)), the “herbicidal effect … (D)” value (Chinese sprangletop) was 3 (Herbicidal rate of 40% or more and less than 70%) and the “Herbicidal effect by soil treatment, J: blackgrass” value (blackgrass [6]) was 0 (Herbicidal rate of 5% or less (almost no effect)). The “Herbicidal effect by soil treatment, O: lambsquarters” value (lambsquarters [7]) was 4 (Herbicidal rate of 70% or more and less than 90%) and the “herbicidal effect on K: Italian ryegrass” value (Italian ryegrass [8]) was 4 (Herbicidal rate of 70% or more and less than 90%).

For `Cc1nn(C)c(=O)c(-c2c(-c3ccccc3OC(F)(F)F)sc3c(Cl)cccc23)c1O` [4-076], the “herbicidal effect on rice flat sedge (E)” value (rice flat sedge) was 3 (Herbicidal rate of 40% or more and less than 70%), the “Herbicidal effect by foliage application, J: blackgrass” value (blackgrass [1]; [9]) was 0 (Herbicidal rate of 5% or less (almost no effect)) and the “Herbicidal effect by foliage application, L: windgrass” value (windgrass; [9]) was 0 (Herbicidal rate of 5% or less (almost no effect)). For the same molecule, the “Herbicidal effect by foliage application, O: lambsquarters” value (lambsquarters [2]; [9]) was 4 (Herbicidal rate of 70% or more and less than 90%), the “Herbicidal effect by foliage application, R: persian speedwell” value (persian speedwell; [9]) was 5 (Herbicidal rate of 90% or more (almost completely withered)) and the “Herbicidal effect by foliage application, I: wild oat” value (wild oat; [9]) was 0 (Herbicidal rate of 5% or less (almost no effect)). For the same molecule, the “herbicidal effect rating, B” value (Japanese bulrush) was 2 (Herbicidal rate of 20% or more and less than 40%), the “Herbicidal effect by foliage application, P: chickweed” value (chickweed; [9]) was 5 (Herbicidal rate of 90% or more (almost completely withered)) and the “Herbicidal effect by soil treatment, K” value (Italian ryegrass [3]) was 0 (Herbicidal rate of 5% or less (almost no effect)). The “Herbicidal effect by foliage application, H: barnyard grass” value (barnyard grass [4]; [9]) was 3 (Herbicidal rate of 40% or more and less than 70%), the “Herbicidal effect … green foxtail” value (green foxtail) was 0 (Herbicidal rate of 5% or less (almost no effect)) and the “Herbicidal effect by foliage application, M: velvetleaf” value (velvetleaf; [9]) was 4 (Herbicidal rate of 70% or more and less than 90%). The “Herbicidal effect by soil treatment, H: barnyard grass” value (barnyard grass [5]) was 0 (Herbicidal rate of 5% or less (almost no effect)), the “herbicidal effect … (D)” value (Chinese sprangletop) was 3 (Herbicidal rate of 40% or more and less than 70%) and the “Herbicidal effect by soil treatment, J: blackgrass” value (blackgrass [6]) was 0 (Herbicidal rate of 5% or less (almost no effect)). The “Herbicidal effect by soil treatment, O: lambsquarters” value (lambsquarters [7]) was 3 (Herbicidal rate of 40% or more and less than 70%) and the “Herbicidal effect by foliage application, K: Italian ryegrass” value (Italian ryegrass [8]; [9]) was 0 (Herbicidal rate of 5% or less (almost no effect)).
